Where “and” joins values, the source holds several entries; their conditions need not be identical. Equal entries are not always repeated. Toxic doses and inconclusive results are not listed. No stated cut-off is given here; in the data, active means T/C of 150% or more; inactive means T/C below 125%. Peptide text beside a SMILES is read from it.
System: L1210 leukemia ip in BDF1 mice, survival T/C
Assay: NCI In Vivo Anticancer Drug Screen. Data for tumor model L1210 Leukemia (intraperitoneal) in B6D2F1 (BDF1) mice
Details: endpoint: mean survival time, higher = longer survival
How it was run: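 Antitumor effect is assessed in tumor-bearing animals. Survival in the compound arm is compared with a vehicle-dosed control arm and expressed as their quotient.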

[1] = dose: 100.0 mg/kg/injection, schedule: Q04DX002 (ip), vehicle: Klucel (hydroxypropylcellulose) (HPC)
[2] = dose: 200.0 mg/kg/injection, schedule: Q04DX002 (ip), vehicle: Klucel (hydroxypropylcellulose) (HPC)
[3] = dose: 400.0 mg/kg/injection, schedule: Q04DX002 (ip), vehicle: Klucel (hydroxypropylcellulose) (HPC)
[4] = dose: 100.0 mg/kg/injection, schedule: Q01DX001 (ip), vehicle: carboxymethylcellulose (CMC)
[5] = dose: 200.0 mg/kg/injection, schedule: Q01DX001 (ip), vehicle: carboxymethylcellulose (CMC)
[6] = dose: 400.0 mg/kg/injection, schedule: Q01DX001 (ip), vehicle: carboxymethylcellulose (CMC)
[7] = dose: 25.0 mg/kg/injection, schedule: Q04DX003 (ip), vehicle: Klucel (hydroxypropylcellulose) (HPC)
[8] = dose: 50.0 mg/kg/injection, schedule: Q04DX003 (ip), vehicle: Klucel (hydroxypropylcellulose) (HPC)
[9] = dose: 100.0 mg/kg/injection, schedule: Q04DX003 (ip), vehicle: saline with Tween-80
[10] = dose: 200.0 mg/kg/injection, schedule: Q04DX003 (ip), vehicle: saline with Tween-80
[11] = dose: 400.0 mg/kg/injection, schedule: Q04DX003 (ip), vehicle: saline with Tween-80
[12] = dose: 100.0 mg/kg/injection, schedule: Q01DX009 (ip), vehicle: saline with Tween-80
[13] = dose: 200.0 mg/kg/injection, schedule: Q01DX009 (ip), vehicle: saline with Tween-80
[14] = dose: 100.0 mg/kg/injection, schedule: Q01DX009 (ip), vehicle: Klucel (hydroxypropylcellulose) (HPC)
[15] = dose: 100.0 mg/kg/injection, schedule: Q04DX003 (ip), vehicle: Klucel (hydroxypropylcellulose) (HPC)
[16] = dose: 200.0 mg/kg/injection, schedule: Q04DX003 (ip), vehicle: Klucel (hydroxypropylcellulose) (HPC)
[17] = dose: 50.0 mg/kg/injection, schedule: Q01DX009 (ip), vehicle: saline
[18] = dose: 100.0 mg/kg/injection, schedule: Q01DX009 (ip), vehicle: saline
[19] = dose: 200.0 mg/kg/injection, schedule: Q01DX009 (ip), vehicle: saline
[20] = dose: 100.0 mg/kg/injection, schedule: Q01DX001 (ip), vehicle: Klucel (hydroxypropylcellulose) (HPC)
[21] = dose: 200.0 mg/kg/injection, schedule: Q01DX001 (ip), vehicle: Klucel (hydroxypropylcellulose) (HPC)

Measured: T/C

CNC(=O)CCC(NC(=O)c1ccc(N(C)Cc2cnc3nc(N)nc(N)c3n2)cc1)C(=O)O (stereo unspecified)
active: dose: 100.0 mg/kg/injection, schedule: Q01DX009 (ip), vehicle: sodium bicarbonate 158 % of control
inactive: dose: 25.0 mg/kg/injection, schedule: Q01DX009 (ip), vehicle: sodium bicarbonate 116 % of control

NNC(=O)CNc1cccc(I)c1
inactive: [1] 102 % of control | [2] 95 % of control | [3] 109 % of control

O/N=C(\Cl)c1ccc(/C(Cl)=N\O)cc1
inactive: dose: 5.0 mg/kg/injection, schedule: Q01DX001 (ip), vehicle: saline 111 % of control | dose: 10.0 mg/kg/injection, schedule: Q01DX001 (ip), vehicle: saline 105 % of control | dose: 20.0 mg/kg/injection, schedule: Q01DX001 (ip), vehicle: saline 100 % of control

COc1ccc(Cl)cc1CC=O
inactive: [4] 118 % of control | [5] 118 % of control | [6] 114 % of control

CC1(C)C(=O)N(Br)C(=O)N1Br
inactive: dose: 12.5 mg/kg/injection, schedule: Q04DX003 (ip), vehicle: Klucel (hydroxypropylcellulose) (HPC) 92 % of control | [7] 103 % of control | [8] 103 % of control

CCCCCCCCCCC(CCCCCCC)(CCCCCCCC)CCCCCCCCC (stereo unspecified)
inactive: dose: 133.0 mg/kg/injection, schedule: Q01DX001 (ip), vehicle: saline with Tween-80 102 % of control | dose: 200.0 mg/kg/injection, schedule: Q01DX001 (ip), vehicle: saline with Tween-80 107 % of control | dose: 300.0 mg/kg/injection, schedule: Q01DX001 (ip), vehicle: saline with Tween-80 102 % of control | dose: 400.0 mg/kg/injection, schedule: Q01DX001 (ip), vehicle: saline with Tween-80 101 % of control

O=[N+]([O-])c1ccc(OC(=S)Oc2ccc([N+](=O)[O-])cc2)cc1
inactive: dose: 50.0 mg/kg/injection, schedule: Q01DX001 (ip), vehicle: carboxymethylcellulose (CMC) 103 % of control | [4] 105 % of control | [5] 97 % of control | [6] 100 % of control

O=C1/C(=C/c2cccc3ccccc23)CCc2ccccc21
inactive: [4] 97 % of control | [5] 95 % of control | [6] 97 % of control

CCCCCCc1cc(N=Nc2ccc(S(=O)(=O)Nc3occ(C)c3C)cc2)c(O)cc1O
inactive: [4] 93 % of control | [5] 93 % of control | [6] 98 % of control

COc1cccc(C(=O)O)c1C(=O)c1ccc(C)cc1O
inactive: [9] 100 % of control | [10] 97 % of control | [11] 90 % of control

CN(C)CCCNC(=O)Nc1ccc(Cl)cc1
inactive: dose: 100.0 mg/kg/injection, schedule: Q04DX002 (ip), vehicle: other 101 % of control | dose: 200.0 mg/kg/injection, schedule: Q04DX002 (ip), vehicle: other 101 % of control | dose: 400.0 mg/kg/injection, schedule: Q04DX002 (ip), vehicle: other 97 % of control

CC(=O)Nc1ccc(NC(C)=O)c2c1C(=O)c1ccccc1C2=O
inactive: [12] 94 % of control | [9] 119 % of control | [13] 96 % of control | [10] 112 % of control | dose: 400.0 mg/kg/injection, schedule: Q01DX009 (ip), vehicle: saline with Tween-80 91 % of control | [11] 93 % of control

N#Cc1cnc(N)cc1N
inactive: dose: 25.0 mg/kg/injection, schedule: Q01DX009 (ip), vehicle: Klucel (hydroxypropylcellulose) (HPC) 96 % of control | [7] 97 % of control | dose: 50.0 mg/kg/injection, schedule: Q01DX009 (ip), vehicle: Klucel (hydroxypropylcellulose) (HPC) 98 % of control | [8] 100 % of control | [14] 104 % of control | [15] 101 % of control and 104 % of control | [16] 113 % of control

OCC1=CC(O)C2C=COC(C3OC(CO)C(O)C(O)C3O)C12 (stereo unspecified)
inactive: [17] 96 % of control | [18] 96 % of control | dose: 100.0 mg/kg/injection, schedule: Q04DX003 (ip), vehicle: saline 96 % of control | [19] 95 % of control | dose: 200.0 mg/kg/injection, schedule: Q04DX003 (ip), vehicle: saline 100 % of control | dose: 400.0 mg/kg/injection, schedule: Q04DX003 (ip), vehicle: saline 100 % of control

C=C1CCC(C)(C2(c3ccccc3)OCCO2)CC1
inactive: dose: 100.0 mg/kg/injection, schedule: Q04DX002 (ip), vehicle: saline with Tween-80 98 % of control | dose: 200.0 mg/kg/injection, schedule: Q04DX002 (ip), vehicle: saline with Tween-80 95 % of control | dose: 400.0 mg/kg/injection, schedule: Q04DX002 (ip), vehicle: saline with Tween-80 91 % of control

COc1cc(N)ccn1
inactive: dose: 100.0 mg/kg/injection, schedule: Q04DX003 (ip), vehicle: acetone 95 % of control | dose: 200.0 mg/kg/injection, schedule: Q04DX003 (ip), vehicle: acetone 94 % of control | dose: 400.0 mg/kg/injection, schedule: Q04DX003 (ip), vehicle: acetone 94 % of control

CCOC(=O)c1c(NC(C)=O)sc2c1CCCC2
inactive: dose: 50.0 mg/kg/injection, schedule: Q01DX009 (ip), vehicle: saline with Tween-80 108 % of control | [12] 108 % of control | [13] 95 % of control

CCC1C(=O)NC(=O)C1(C)c1ccccc1 (stereo unspecified)
inactive: dose: 25.0 mg/kg/injection, schedule: Q01DX009 (ip), vehicle: saline 115 % of control | [7] 120 % of control | [17] 103 % of control | [8] 101 % of control | [18] 98 % of control | [15] 101 % of control | [19] 110 % of control | [16] 93 % of control | dose: 400.0 mg/kg/injection, schedule: Q01DX009 (ip), vehicle: saline 86 % of control | dose: 400.0 mg/kg/injection, schedule: Q04DX003 (ip), vehicle: Klucel (hydroxypropylcellulose) (HPC) 104 % of control

CCCC(=O)c1ccc(OC)c(OC)c1
inactive: [14] 101 % of control | dose: 200.0 mg/kg/injection, schedule: Q01DX009 (ip), vehicle: Klucel (hydroxypropylcellulose) (HPC) 95 % of control

Cc1ccc(COP(=O)(c2ccccc2)c2ccccc2)cc1
inactive: dose: 66.0 mg/kg/injection, schedule: Q01DX001 (ip), vehicle: Klucel (hydroxypropylcellulose) (HPC) 98 % of control | [20] 93 % of control | dose: 150.0 mg/kg/injection, schedule: Q01DX001 (ip), vehicle: Klucel (hydroxypropylcellulose) (HPC) 97 % of control | [21] 91 % of control

O=S(=O)(O)Nc1ccc(Cl)cc1
inactive: dose: 25.0 mg/kg/injection, schedule: Q04DX002 (ip), vehicle: Klucel (hydroxypropylcellulose) (HPC) 102 % of control | dose: 50.0 mg/kg/injection, schedule: Q04DX002 (ip), vehicle: Klucel (hydroxypropylcellulose) (HPC) 102 % of control | [1] 102 % of control

N#CCCOP(=O)(O)O
inactive: [20] 101 % of control | [21] 98 % of control | dose: 400.0 mg/kg/injection, schedule: Q01DX001 (ip), vehicle: Klucel (hydroxypropylcellulose) (HPC) 88 % of control

CCc1nc(N)ncc1-c1ccc([N+](=O)[O-])cc1O
inactive: [1] 97 % of control | [2] 100 % of control | [3] 90 % of control

CC(O)C(NC(=O)C(N)CCCN=C(N)N)C(=O)NC(Cc1ccccc1)C(=O)O (stereo not drawn) (H-Arg-Thr-Phe-OH; configuration not given here)
inactive: dose: 18.75 mg/kg/injection, schedule: Q04DX002 (ip), vehicle: saline with Tween-80 101 % of control | dose: 37.5 mg/kg/injection, schedule: Q04DX002 (ip), vehicle: saline with Tween-80 97 % of control | dose: 75.0 mg/kg/injection, schedule: Q04DX002 (ip), vehicle: saline with Tween-80 93 % of control | dose: 150.0 mg/kg/injection, schedule: Q04DX002 (ip), vehicle: saline with Tween-80 97 % of control

C[n+]1ccn(Cc2ccc([N+](=O)[O-])cc2)c1
inactive: [10] 90 % of control
active: [9] 171 % of control

Clc1ccc(CSc2ncnc3nc[nH]c23)cc1Cl
inactive: [9] 93 % of control | [10] 94 % of control | [11] 104 % of control

Reference: PubChem BioAssay AID248 (DTP/NCI, 2004)
